Several values for one entry are separate records, joined by “and”; a condition that tells them apart may be missing. Identical values can stand only once. Like-named read-outs stand apart in the source and are kept apart here. Blank lines part the entries; values can stand above or below the molecule they belong to.
Columns and labels:
clinical = conditions: human, plasma, intravenous, cycle 1, day 1; for AUC(0-t): AUC (0–24 h); for concentration at 24 h: C24 h
FLT3 = conditions: cited from earlier work
[1] = Plasma concentrations of midostaurin and metabolites
[2] = Concomitant midostaurin n = 13, cycle 1, day 1
[3] = Sequential midostaurin n = 13, cycle 1, day 1
[4] = Mean ± SD, Concomitant midostaurin n = 13
[5] = Mean ± SD, Sequential midostaurin n = 13
[6] = Median, Concomitant midostaurin n = 13
[7] = Median, Sequential midostaurin n = 13
[8] = Concomitant (days 1-7 and 15-21), 50 mg BID, Induction cycle 1, day 1
[9] = Concomitant, 50 mg BID, First consolidation cycle, day 15.5
[10] = Concomitant, 50 mg BID, Induction cycle 1, Day 1 (+ 2 h)
[11] = Concomitant, 50 mg BID, Induction cycle 1, Day 1 (+ 4 h)
[12] = Concomitant, 50 mg BID, Induction cycle 1, day 2
[13] = Concomitant, 50 mg BID, Induction cycle 1, day 4
[14] = Concomitant, 50 mg BID, Induction cycle 1, day 15 (+ 2 h)
[15] = Concomitant, 50 mg BID, Induction cycle 1, day 15 (+ 4 h)
[16] = Sequential (days 8-21), 50 mg BID, Induction cycle 1, day 8
[17] = Sequential, 50 mg BID, First consolidation cycle, day 1.5
[18] = Sequential, 50 mg BID, First consolidation cycle, day 15.5
[19] = Sequential, 50 mg BID, First consolidation cycle, day 29.5
[20] = Sequential, 50 mg BID, Induction cycle 1, day 8 (+ 2 h)
[21] = Sequential, 50 mg BID, Induction cycle 1, day 8 (+ 4 h)
[22] = Sequential, 50 mg BID, Induction cycle 1, day 9
[23] = Sequential, 50 mg BID, Induction cycle 1, day 15
[24] = Sequential, 50 mg BID, Induction cycle 1, day 22.5
[25] = Sequential, 50 mg BID, Induction cycle 1, day 29.5

CL, Mean ± SD [2]: 269 ± 130 L/h/m^2
CL, Median [2]: 283 L/h/m^2
Vz, Mean ± SD [2]: 717 ± 266 L/m^2
Vz, Median [2]: 694 L/m^2
C24 h, Mean ± SD [3]: 0 ± 0 ng/mL
CL, Mean ± SD [3]: 330 ± 226 L/h/m^2
CL, Median [3]: 270 L/h/m^2
Vz, Mean ± SD [3]: 946 ± 696 L/m^2
Vz, Median [3]: 775 L/m^2
C24 h, Median (Sequential midostaurin n = 13, cycle 1, day 1, LLOQ is 5 ng/mL): LLOQ
Effect of midostaurin on clearance (midostaurin 50 mg twice daily): does not seem to be affected
C24 h, Concomitant/sequential midostaurin (ratio, cycle 1, day 1): 17.4/LLOQ
AUC(0-t) (clinical; [4]): 373 ng·h/mL
AUC(0-t) (clinical; [5]): 267 ng·h/mL
AUC(0-t) (clinical; [6]): 189 ng·h/mL
AUC(0-t) (clinical; [7]): 159 ng·h/mL
concentration at 24 h (clinical; [4]): 17.4 ng/mL
concentration at 24 h (clinical; [6]): 17.4 ng/mL
Cmax (clinical; [4]): 98 ng/mL
Cmax (clinical; [5]): 229 ng/mL
Cmax (clinical; [6]): 89 ng/mL
Cmax (clinical; [7]): 76 ng/mL
Tmax (clinical; [4]): 30 min
Tmax (clinical; [5]): 36 min
Tmax (clinical; [6]): 30 min
Tmax (clinical; [7]): 30 min
SMILES: COc1cccc2c1C(=O)c1c(O)c3c(c(O)c1C2=O)C[C@@](O)(C(C)=O)C[C@@H]3O[C@H]1C[C@H](N)[C@H](O)[C@H](C)O1 [daunorubicin]

SMILES: CN(C(=O)c1ccccc1)[C@@H]1C[C@H]2O[C@@](C)([C@@H]1O)n1c3ccccc3c3c4c(c5c6ccccc6n2c5c31)C(=O)NC4 [CGP62221]
Inhibition of FLT3 in vitro (FLT3): capable of inhibiting FLT3 in vitro

Pharmacokinetic interaction with midostaurin (data not shown): No interaction
SMILES: Nc1ccn([C@@H]2O[C@H](CO)[C@@H](O)[C@@H]2O)c(=O)n1 [cytarabine]

Plasma concentration, Max [1, 8]: LLOQ
Plasma concentration, Median [1, 8]: LLOQ
Plasma concentration, Min [1, 8]: LLOQ
Plasma concentration, Max [1, 9]: 810 ng/mL
Plasma concentration, Min [1, 9]: 810 ng/mL
Plasma concentration, individual values (n = 2; merged Median/Min/Max cell) ([1]; Concomitant, 50 mg BID, First consolidation cycle, day 29.5): 809 ng/mL and 2990 ng/mL
Plasma concentration, Max [1, 10]: 812 ng/mL
Plasma concentration, Median [1, 10]: 170 ng/mL
Plasma concentration, Min [1, 10]: 52.9 ng/mL
Plasma concentration, Max [1, 11]: 209 ng/mL
Plasma concentration, Median [1, 11]: 137 ng/mL
Plasma concentration, Min [1, 11]: 115 ng/mL
Plasma concentration, Max [1, 12]: 460 ng/mL
Plasma concentration, Median [1, 12]: 361 ng/mL
Plasma concentration, Min [1, 12]: 228 ng/mL
Plasma concentration, Max [1, 13]: 1090 ng/mL
Plasma concentration, Median [1, 13]: 832 ng/mL
Plasma concentration, Min [1, 13]: 570 ng/mL
Plasma concentration, Max [1, 14]: 1920 ng/mL
Plasma concentration, Median [1, 14]: 1170 ng/mL
Plasma concentration, Min [1, 14]: 814 ng/mL
Plasma concentration, Max [1, 15]: 1860 ng/mL
Plasma concentration, Median [1, 15]: 1465 ng/mL
Plasma concentration, Min [1, 15]: 893 ng/mL
Plasma concentration, Max [1, 16]: LLOQ
Plasma concentration, Median [1, 16]: LLOQ
Plasma concentration, Min [1, 16]: LLOQ
Plasma concentration, Max [1, 17]: 3110 ng/mL
Plasma concentration, Median [1, 17]: 1740 ng/mL
Plasma concentration, Min [1, 17]: 835 ng/mL
Plasma concentration, Max [1, 18]: 4210 ng/mL
Plasma concentration, Median [1, 18]: 2685 ng/mL
Plasma concentration, Min [1, 18]: 1490 ng/mL
Plasma concentration, Max [1, 19]: 5320 ng/mL
Plasma concentration, Median [1, 19]: 2230 ng/mL
Plasma concentration, Min [1, 19]: 1440 ng/mL
Plasma concentration, Max [1, 20]: 194 ng/mL
Plasma concentration, Median [1, 20]: 70.8 ng/mL
Plasma concentration, Min [1, 20]: 35.9 ng/mL
Plasma concentration, Max [1, 21]: 207 ng/mL
Plasma concentration, Median [1, 21]: 113 ng/mL
Plasma concentration, Min [1, 21]: 58.2 ng/mL
Plasma concentration, Max [1, 22]: 414 ng/mL
Plasma concentration, Median [1, 22]: 293 ng/mL
Plasma concentration, Min [1, 22]: 145 ng/mL
Plasma concentration, Max [1, 23]: 1670 ng/mL
Plasma concentration, Median [1, 23]: 1460 ng/mL
Plasma concentration, Min [1, 23]: 903 ng/mL
Plasma concentration, Max [1, 24]: 3540 ng/mL
Plasma concentration, Median [1, 24]: 2800 ng/mL
Plasma concentration, Min [1, 24]: 1630 ng/mL
Plasma concentration, Max [1, 25]: 3330 ng/mL
Plasma concentration, Median [1, 25]: 1955 ng/mL
Plasma concentration, Min [1, 25]: 1350 ng/mL
Half-life (qualitative) ([1]; midostaurin 50 mg twice daily, stable levels between dosing treatment phases): long half-life
SMILES: CO[C@@H]1[C@H](N(C)C(=O)c2ccccc2)C[C@H]2O[C@]1(C)n1c3ccccc3c3c4c(c5c6ccccc6n2c5c31)C(=O)N[C@H]4O [CGP52421]
Inhibition of FLT3 in vitro (FLT3): capable of inhibiting FLT3 in vitro

From PMC4118284 (Leukemia, 2012)
